Laboratory results as given in publication PMC5201116, “Bioactive Flavonoids and Catechols as Hif1 and Nrf2 Protein Stabilizers - Implications for Parkinson’s Disease” (Aging and Disease, 2016).
Like-named read-outs stand apart in the source and are kept apart here.

Key:
[1] = tested on: HIF1 ODD-luc reporter (SH-SY5Y cell line); assay: HIF1 ODD-luc reporter assay; assay type: cell-based; settings: for fold induction at 10 µM: Homo sapiens, SH-SY5Y, 3 h, read-out: ODD-luc fold activation; for fold induction at 10 µM / ODD-luc fold activation: 3 h incubation, at 10 µM
Experimental: (§1) SH-SY5Y cell lines stably expressing HIF1 ODD-luc or Neh2-luc reporters were grown in the DMEM/F12 supplemented with GlutaMAX (Thermo Fisher Scientific) containing 10% FBS, 100 U/ml penicillin, and 100 μg/ml streptomycin and plated into 384-well white flat-bottom plates at 7,000 cell/well in 30 µl serum and incubated overnight at 37°C, 5% CO2. The next day compounds were added to a final concentration of 10 µM and the plates were incubated for 3 hours at 37°C. Reporter activation after 3 h incubation with the studied compound was compared to that for ciclopirox (HIF1 ODD-luc reporter) or TBHQ (Neh2-luc reporter), taken as 100%. Luciferase reporter activity was measured with a SteadyGlo reagent from Promega providing stable reading for 1 h.
(§2) Cells were plated at the density of 25,000 cell per well using a WellMate multichannel dispenser from Matrix (Thermo Fisher Scientific, Waltham, MA) and grown overnight on DMEM/F12+GlutaMAX (100 µl per well). Then an inhibitor was added, and the plates were incubated for a fixed time interval; the medium was removed, cells lysed, and luciferase activity was measured on a SpectraMax M5e platereader (Molecular Devices, Sunnyvale, CA) with BrightGlo™ reagent (Promega, Madison, WI). The reporter activation was normalized to the background luminescence. The effect of 0.5 mM N-acetylcysteine (NAC) was studied by simultaneous addition of 5 µL of 10 mM stock of NAC in water and 2 µL of 50x stock solutions of a flavonoid in DMSO.

[2] = tested on: HRE-luciferase reporter (HT22 hippocampal cell line); assay: HRE-luc reporter assay; assay type: cell-based; settings: for fold induction at 10 µM: Mus musculus, HT-22, 3 h, read-out: HRE-luc fold activation; for fold induction at 10 µM / HRE-luc fold activation: at 10 µM
From the text: A promoter-reporter construct that contained 68 bp of a known hypoxia and HIF-1 regulated gene, enolase, containing a wild type hypoxia response element (HRE, 5’-RCTGT-3’), is a widely used approach for screening for HIF activators of different mechanism of action. A cell-based assay with HRE-luciferase reporter system is based on transfected immortalized hippocampal cell line (HT22) and allows screening for a broad spectrum of compounds that include: activators of HIF transcription; activators of HIF binding to HRE; and effectors of HIF protein stability (PHD inhibitors, pVHL & proteasome inhibitors). The assay was performed the same way as for HIF ODD-luc reporter except the cells were plated at the density of 10,000 cell per well and incubated overnight.

[3] = tested on: Neh2-luc reporter (SH-SY5Y cell line); assay: Neh2-luc reporter assay; assay type: cell-based; settings: for EC50: Neh2-luc
Experimental: as §1, §2

[4] = Iron binding constant, calcein displacement assay; assay type: physicochemical; settings: for Iron complex Diss. Const: calcein displacement
From the text: Calcein displacement assay in the presence of varied concentrations of flavonoids and catechols has been used. Calcein release from its complex with iron was monitored by fluorescence as described in [26].

[5] = parameters: method as in PMID 17112238; settings: cited from earlier work
[6] = Non-enzymatic ferricyanide reduction rate constant; assay type: physicochemical; settings: 1 mM ferricyanide, pH 7.0
Experimental: The rate of ferricyanide reduction by individual flavonoids was measured spectrophotometrically at 420 nm with the fixed concentration of ferricyanide (1 mM) and varied concentrations of a flavonoid in Potassium-phosphate buffer, pH 7.0. The rate constant for direct ferricyanide reduction was calculated from the slope of the dependence reaction rate vs flavonoid concentration and used as a measure of flavonoid non-specific reducing power.

| Structure (SMILES) | fold induction at 10 µM [2] | Neh2-luc fold activation ([3]; at 10 µM, 3 h incubation) | Iron complex Diss. Const [4] | ODD-luc fold activation [1] | HRE-luc fold activation [2] | also measured |
| --- | --- | --- | --- | --- | --- | --- |
| O=C(O)CN(CC(=O)O)Cc1cc2c(cc1O)Oc1cc(O)c(CN(CC(=O)O)CC(=O)O)cc1C21OC(=O)c2ccccc21 [compound 34, Calcein, reference compound] | 1.7 ± 0.2 | Inactive | 0.05 ± 0.01 µM |  |  | fold induction at 10 µM [1]: 2 ± 0.25 |
| COc1ccc(-c2oc3ccccc3c(=O)c2O)cc1 [compound 4, 3-Hydroxy-4'-methoxy-] |  |  | 4.0 ± 0.4 µM |  |  |  |
| O=c1cc(-c2ccccc2)oc2cccc(O)c12 [compound 14, 5-hydroxyflavone] |  | Inactive | Inactive | Inactive | Inactive | Iron complex Diss. Const ([4]; listed as 5-hydroxyflavone): does not bind iron in solution; EHOMO [5]: -9.12 eV |
| O=c1c(O)c(-c2cc(O)c(O)c(O)c2)oc2cc(O)cc(O)c12 [compound 13, Myricetin] | 2 ± 0.2 |  | 2.0 ± 0.2 µM |  |  | fold induction at 10 µM [1]: 1.3 ± 0.2; EC50 ([3]; Homo sapiens, SH-SY5Y): 2 µM; fold induction at 10 µM ([3]; Homo sapiens, SH-SY5Y, at 10 µM, 3 h incubation, read-out: Neh2-luc fold activation): 25 ± 3; EHOMO [5]: -8.80 eV |
| O=c1c(-c2ccc(O)cc2)coc2cc(O)cc(O)c12 [compound 24, 5-Hydroxy-daidzein] |  |  |  |  | Inactive |  |
| O=c1cc(-c2ccccc2)oc2cc(O)cc(O)c12 [compound 15, Chrysin] | 1.2 ± 0.15 | Inactive | Inactive | Inactive |  | EHOMO [5]: -9.25 eV |
| O=c1c(O)c(-c2ccccc2)oc2cc(O)ccc12 [compound 2, 3,7-Dihydroxy-] |  |  | 2.5 ± 0.3 µM |  |  | FC red Rate Const [6]: inactive |
| O=c1cc(-c2ccc(O)cc2)oc2cc(O)cc(O)c12 [compound 16, Apigenin] | 1.3 ± 0.15 | Inactive | Inactive | Inactive |  | EHOMO [5]: -9.15 eV |
| N[C@H](Cc1ccc(O)c(O)c1)C(=O)O [compound 30, 3,4-Dihydroxy-D-phenylalanine] |  | Inactive | 2.5 ± 0.3 µM | Inactive | Inactive | EC50 ([3]; Homo sapiens, SH-SY5Y): 20 µM |
| O=c1c(-c2ccc(O)cc2)coc2c(O)c(O)ccc12 [compound 25, 8-Hydroxy-daidzein] |  | Inactive | 1.5 ± 0.3 µM | Inactive | Inactive |  |
| O=c1c(-c2ccc(O)cc2)coc2cc(O)ccc12 [compound 26, Daidzein] |  | Inactive | Inactive | Inactive | Inactive | ODD-luc fold activation ([1]; listed as daidzein): did not cause any activation effect; Neh2-luc fold activation ([3]; at 10 µM, 3 h incubation, listed as daidzein): not |
| O=c1c(O)c(-c2ccccc2)oc2cccc(O)c12 [compound 7, 3,5-Dihydroxy-] | 2 ± 0.2 | Inactive | 2.5 ± 0.3 µM |  |  | fold induction at 10 µM [1]: 1.3 ± 0.2; FC red Rate Const [6]: inactive |
| O=C(NO)c1ccc(O)c(O)c1 [compound 33, 3,4-Dihydroxy-benzohydroxamate] |  | Inactive | 1.5 ± 0.3 µM |  |  | ODD-luc: concentration above which active [1]: Active above 100 µM; ODD-luc: concentration above which active ([1]; listed as Didox): above 100 µM; HRE-luc: concentration above which active [2]: Active above 100 µM; EC50 [3]: 100 µM |
| O=c1cc(-c2ccccc2)oc2c(O)c(O)ccc12 [compound 20, 7,8-Dihydroxyflavone] | 3.6 ± 0.4 | Inactive | 0.7 ± 0.1 µM |  |  | fold induction at 10 µM [1]: 1.5 ± 0.2; iron dissociation constant [4]: ca. 700 nM; EHOMO [5]: -9.23 eV |
| COc1ccc2c(=O)c(O)c(-c3ccccc3)oc2c1 [compound 5, 3-Hydroxy-7-methoxy-] |  | Inactive | 5.0 ± 0.5 µM | Inactive | Inactive | Iron complex Diss. Const ([4]; listed as 3-hydroxy-7-methoxyflavone): ca. 5 µM |
| CC(C)Oc1ccc2c(=O)c(-c3ccccc3)coc2c1 [compound 22, Ipriflavone] | 2.5 ± 0.3 | Inactive | Inactive | Inactive |  |  |
| COc1ccc2c(=O)c(OC)c(-c3ccccc3)oc2c1 [compound 6, 3,7-Dimethoxy-] |  | Inactive |  | Inactive | inactive |  |
| O=c1c(O)c(-c2ccccc2)oc2ccccc12 [compound 1, 3-Hydroxyflavone] | 1.5 ± 0.2 | inactive | 2.0 ± 0.2 µM |  |  | fold induction at 10 µM [1]: 1.5 ± 0.2; Neh2-luc fold activation ([3]; at 10 µM, 3 h incubation, listed as 3-hydroxyflavone): completely inactive; Iron complex Diss. Const ([4]; listed as 3-Hydroxyflavone): ca. 2 µM; FC red Rate Const [6]: inactive |
| O=c1c(O)c(-c2ccc(O)cc2)oc2ccccc12 [compound 3, 3,4'-Dihydroxy-] |  |  | 2.5 ± 0.2 µM | Inactive | Inactive | FC red Rate Const [6]: Inactive |
| COc1cc(C)c2c(=O)cc(-c3ccccc3)oc2c1 [compound 21, Methoxyvone] | 3.2 ± 0.35 | Inactive | Inactive | Inactive |  |  |
| O=c1c(O)c(-c2ccc(O)cc2O)oc2cc(O)cc(O)c12 [compound 12, Morin] | 1.3 ± 0.2 | Inactive | 2.5 ± 0.3 µM | Inactive |  | Neh2-luc fold activation ([3]; at 10 µM, 3 h incubation, listed as morin): completely inactive; EHOMO [5]: -8.81 eV |
| O=c1c(-c2ccc(O)cc2)coc2cc(O)cc(O)c12 [compound 23, Genistein] | 1.5 ± 0.2 | Inactive | Inactive | Inactive |  |  |
